Here are results for 27 targets from the supplement of paper PMC12463676, “Small-molecule dissolution of stress granules by redox modulation benefits ALS models” (Nature Chemical Biology, 2025).

Compound in assay [1]: NC(=O)CCCCC1CCSS1 [lipoamide]
The assay is described as follows: thermal stability z-score vs DMSO; higher = more thermally stabilized by treatment. The following applies: HeLa, lipoamide concentration 100 µM. Here is the method:
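Cellular thermal proteome profiling in HeLa cells. Cells were treated with 100 µM lipoamide for 1 h, with or without 1 mM arsenate for a further 1 h, then heated to ten temperatures (37-66.3 °C), and soluble protein was quantified by TMT mass spectrometry relative to 0.1% DMSO controls. The thermal stability score (sum of log2 fold changes minus the abundance score) was transformed to a z-score; mean of n = 3 experiments.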

Compound in assay [2]: O=[As]([O-])(O)O.[K+] [potassium arsenate]
The assay is described as above. Conditions: HeLa; arsenate concentration 1 mM. Here is the method:
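Cellular thermal proteome profiling in HeLa cells treated with 1 mM arsenate for 1 h (DMSO pretreatment), heated to ten temperatures (37-66.3 °C). Soluble protein was quantified by TMT mass spectrometry relative to DMSO controls; the thermal stability score was transformed to a z-score; mean of n = 3 experiments.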

[3] abbreviates: arsenate co-treatment: 1 mM arsenate 1 h.
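Further: each temperature applied for 3 min, abundance score taken as mean log2 fold change at the two lowest temperatures, z-score obtained by mean subtraction and division by SD.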

UniProt Q96SB4, sequence (Q96SB4 whole entry): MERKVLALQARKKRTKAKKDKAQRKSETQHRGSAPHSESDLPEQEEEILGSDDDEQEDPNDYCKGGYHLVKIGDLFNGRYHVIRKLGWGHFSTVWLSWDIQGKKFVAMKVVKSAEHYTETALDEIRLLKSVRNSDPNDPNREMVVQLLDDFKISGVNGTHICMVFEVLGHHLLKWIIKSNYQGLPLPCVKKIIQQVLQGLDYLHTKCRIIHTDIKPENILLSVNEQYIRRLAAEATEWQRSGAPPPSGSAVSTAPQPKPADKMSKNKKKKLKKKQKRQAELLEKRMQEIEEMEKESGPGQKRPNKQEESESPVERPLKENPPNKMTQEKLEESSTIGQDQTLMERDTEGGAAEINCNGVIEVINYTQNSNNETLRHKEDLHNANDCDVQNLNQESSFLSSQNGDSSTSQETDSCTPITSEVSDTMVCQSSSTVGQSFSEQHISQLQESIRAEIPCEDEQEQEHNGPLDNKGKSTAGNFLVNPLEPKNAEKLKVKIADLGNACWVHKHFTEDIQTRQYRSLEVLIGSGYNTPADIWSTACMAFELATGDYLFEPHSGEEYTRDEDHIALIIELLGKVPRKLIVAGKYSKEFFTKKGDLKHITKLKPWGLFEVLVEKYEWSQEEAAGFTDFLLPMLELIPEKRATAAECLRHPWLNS
UniProt Q9HD20, sequence (Q9HD20 whole entry): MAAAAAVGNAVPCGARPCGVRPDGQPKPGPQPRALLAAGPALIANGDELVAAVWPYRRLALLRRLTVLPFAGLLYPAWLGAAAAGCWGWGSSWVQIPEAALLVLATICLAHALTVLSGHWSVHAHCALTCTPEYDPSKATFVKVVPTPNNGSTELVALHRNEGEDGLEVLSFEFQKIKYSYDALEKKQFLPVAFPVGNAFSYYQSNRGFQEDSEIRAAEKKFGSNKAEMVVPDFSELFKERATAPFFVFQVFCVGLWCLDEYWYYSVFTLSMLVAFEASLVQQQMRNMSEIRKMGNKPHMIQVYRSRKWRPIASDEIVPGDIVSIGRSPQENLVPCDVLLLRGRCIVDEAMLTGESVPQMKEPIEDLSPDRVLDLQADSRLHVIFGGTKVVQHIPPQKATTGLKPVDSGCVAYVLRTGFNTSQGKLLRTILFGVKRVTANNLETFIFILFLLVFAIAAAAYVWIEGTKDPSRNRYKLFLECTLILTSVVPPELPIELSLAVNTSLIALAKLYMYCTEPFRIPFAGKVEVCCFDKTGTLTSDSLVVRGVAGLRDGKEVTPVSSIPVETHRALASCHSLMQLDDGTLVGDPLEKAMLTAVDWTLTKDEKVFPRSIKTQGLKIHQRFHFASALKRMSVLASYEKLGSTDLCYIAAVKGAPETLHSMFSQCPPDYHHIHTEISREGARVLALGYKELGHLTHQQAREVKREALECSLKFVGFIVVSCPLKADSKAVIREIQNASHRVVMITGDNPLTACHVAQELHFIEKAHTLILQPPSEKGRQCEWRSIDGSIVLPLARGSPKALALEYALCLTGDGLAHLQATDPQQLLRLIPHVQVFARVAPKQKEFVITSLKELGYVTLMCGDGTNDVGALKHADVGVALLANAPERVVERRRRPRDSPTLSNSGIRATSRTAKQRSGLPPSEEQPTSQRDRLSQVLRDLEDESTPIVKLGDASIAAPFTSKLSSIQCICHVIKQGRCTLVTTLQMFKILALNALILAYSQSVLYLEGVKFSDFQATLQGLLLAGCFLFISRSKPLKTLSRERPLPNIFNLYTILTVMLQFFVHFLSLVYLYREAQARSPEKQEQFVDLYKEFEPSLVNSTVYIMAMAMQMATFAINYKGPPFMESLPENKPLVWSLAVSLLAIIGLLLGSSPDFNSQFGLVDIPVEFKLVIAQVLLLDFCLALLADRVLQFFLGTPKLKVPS
UniProt Q9Y5T4, sequence (Q9Y5T4 whole entry): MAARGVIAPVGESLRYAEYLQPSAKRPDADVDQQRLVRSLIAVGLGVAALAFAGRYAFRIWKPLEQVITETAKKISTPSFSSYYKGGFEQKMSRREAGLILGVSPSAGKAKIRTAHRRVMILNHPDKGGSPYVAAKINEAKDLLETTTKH
UniProt P20073, sequence (P20073 whole entry): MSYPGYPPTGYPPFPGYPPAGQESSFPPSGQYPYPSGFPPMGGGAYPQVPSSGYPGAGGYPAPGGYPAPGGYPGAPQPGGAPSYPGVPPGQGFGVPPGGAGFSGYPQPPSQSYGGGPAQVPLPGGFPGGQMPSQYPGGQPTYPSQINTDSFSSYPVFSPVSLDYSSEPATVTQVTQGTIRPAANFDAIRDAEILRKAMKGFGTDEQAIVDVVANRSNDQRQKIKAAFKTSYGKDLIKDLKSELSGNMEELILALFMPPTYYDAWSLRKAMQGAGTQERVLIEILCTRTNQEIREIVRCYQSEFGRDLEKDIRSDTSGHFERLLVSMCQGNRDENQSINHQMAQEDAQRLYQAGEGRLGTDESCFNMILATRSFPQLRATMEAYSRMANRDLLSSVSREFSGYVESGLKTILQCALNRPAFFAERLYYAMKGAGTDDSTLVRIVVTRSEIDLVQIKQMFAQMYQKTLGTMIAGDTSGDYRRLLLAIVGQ
UniProt O95816, sequence (O95816 whole entry): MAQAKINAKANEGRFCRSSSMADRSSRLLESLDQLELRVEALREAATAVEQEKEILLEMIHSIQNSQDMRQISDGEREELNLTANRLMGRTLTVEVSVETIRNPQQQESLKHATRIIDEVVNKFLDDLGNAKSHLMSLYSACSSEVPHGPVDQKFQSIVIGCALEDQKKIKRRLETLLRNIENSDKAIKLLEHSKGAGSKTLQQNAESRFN
UniProt P27707, sequence (P27707 whole entry, looked up): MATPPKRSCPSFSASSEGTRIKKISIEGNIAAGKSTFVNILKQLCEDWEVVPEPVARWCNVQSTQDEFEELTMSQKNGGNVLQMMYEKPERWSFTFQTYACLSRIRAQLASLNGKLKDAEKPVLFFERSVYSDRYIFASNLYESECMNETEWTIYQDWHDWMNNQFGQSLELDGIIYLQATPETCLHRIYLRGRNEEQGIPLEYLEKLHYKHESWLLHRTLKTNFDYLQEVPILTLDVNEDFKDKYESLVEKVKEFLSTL
UniProt O60216, sequence (O60216 whole entry): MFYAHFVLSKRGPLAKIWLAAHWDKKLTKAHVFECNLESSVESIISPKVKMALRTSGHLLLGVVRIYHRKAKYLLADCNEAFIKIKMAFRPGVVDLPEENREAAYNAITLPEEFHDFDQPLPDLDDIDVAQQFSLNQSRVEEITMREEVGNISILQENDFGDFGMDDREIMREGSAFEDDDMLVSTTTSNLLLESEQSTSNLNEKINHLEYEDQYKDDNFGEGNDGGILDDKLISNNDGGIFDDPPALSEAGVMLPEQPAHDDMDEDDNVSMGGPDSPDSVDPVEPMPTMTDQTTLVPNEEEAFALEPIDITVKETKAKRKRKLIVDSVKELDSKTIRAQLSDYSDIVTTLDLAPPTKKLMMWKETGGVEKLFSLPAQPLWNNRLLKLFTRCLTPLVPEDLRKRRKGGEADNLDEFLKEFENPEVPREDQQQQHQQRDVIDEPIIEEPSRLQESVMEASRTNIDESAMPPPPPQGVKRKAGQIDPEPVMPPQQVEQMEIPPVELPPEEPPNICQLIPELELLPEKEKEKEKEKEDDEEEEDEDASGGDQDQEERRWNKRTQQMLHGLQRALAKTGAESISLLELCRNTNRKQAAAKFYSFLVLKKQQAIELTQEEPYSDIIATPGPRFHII
UniProt Q96D53, sequence (Q96D53 whole entry): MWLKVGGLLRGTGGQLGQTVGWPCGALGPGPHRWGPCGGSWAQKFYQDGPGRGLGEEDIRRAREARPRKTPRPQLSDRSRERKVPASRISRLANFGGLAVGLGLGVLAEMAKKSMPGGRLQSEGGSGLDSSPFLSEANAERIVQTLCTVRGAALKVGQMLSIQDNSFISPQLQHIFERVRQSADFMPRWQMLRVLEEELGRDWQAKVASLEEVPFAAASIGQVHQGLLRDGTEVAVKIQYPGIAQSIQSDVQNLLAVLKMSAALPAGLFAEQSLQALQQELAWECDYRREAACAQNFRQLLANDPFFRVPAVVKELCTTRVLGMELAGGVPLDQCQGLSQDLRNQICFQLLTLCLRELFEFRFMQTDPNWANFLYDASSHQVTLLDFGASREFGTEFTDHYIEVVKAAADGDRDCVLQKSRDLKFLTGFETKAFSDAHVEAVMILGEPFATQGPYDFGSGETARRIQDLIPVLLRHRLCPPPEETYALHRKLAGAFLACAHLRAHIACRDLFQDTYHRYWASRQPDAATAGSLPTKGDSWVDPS
UniProt Q5TA50, sequence (Q5TA50 whole entry): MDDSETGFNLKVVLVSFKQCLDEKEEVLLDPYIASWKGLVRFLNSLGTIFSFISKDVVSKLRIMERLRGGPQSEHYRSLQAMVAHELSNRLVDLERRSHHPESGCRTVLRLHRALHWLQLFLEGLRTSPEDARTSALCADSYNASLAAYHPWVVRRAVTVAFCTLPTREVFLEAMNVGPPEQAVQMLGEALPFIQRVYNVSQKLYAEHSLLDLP
UniProt Q16637, sequence (Q16637 whole entry): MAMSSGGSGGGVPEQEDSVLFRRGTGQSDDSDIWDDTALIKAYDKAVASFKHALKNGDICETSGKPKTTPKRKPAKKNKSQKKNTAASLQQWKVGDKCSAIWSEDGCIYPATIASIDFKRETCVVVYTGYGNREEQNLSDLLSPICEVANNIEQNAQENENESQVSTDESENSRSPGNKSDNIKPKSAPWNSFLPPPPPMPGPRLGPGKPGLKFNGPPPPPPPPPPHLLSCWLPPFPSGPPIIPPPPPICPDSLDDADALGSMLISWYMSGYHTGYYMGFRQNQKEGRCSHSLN
UniProt P62258, sequence (P62258 whole entry): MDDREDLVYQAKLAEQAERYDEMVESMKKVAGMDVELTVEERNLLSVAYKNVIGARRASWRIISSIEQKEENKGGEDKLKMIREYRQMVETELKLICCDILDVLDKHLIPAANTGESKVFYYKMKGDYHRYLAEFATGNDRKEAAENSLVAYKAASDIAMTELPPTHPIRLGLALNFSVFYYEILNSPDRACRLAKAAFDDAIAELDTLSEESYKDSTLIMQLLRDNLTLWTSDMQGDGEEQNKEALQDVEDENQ

As for MRPL49 (UniProt Q13405), the thermal stability z-score is -0.298 in assay [1] (setting [3]), 0.49 in assay [1] (arsenate co-treatment: none) and -0.254 in assay [2].
For NDUFB8 (UniProt O95169), the thermal stability z-score was 0.714 in assay [1] (setting [3]), 1.42 in assay [1] (arsenate co-treatment: none) and 0.119 in assay [2].
As to DHRS11 (UniProt Q6UWP2), the figures for the thermal stability z-score in assay [1] (setting [3]), in assay [1] (arsenate co-treatment: none) and in assay [2] were 0.484, 0.188 and 0.252, respectively.
In the case of POP1 (UniProt Q99575), the thermal stability z-score in assay [1] (setting [3]) was -0.557; in assay [1] (arsenate co-treatment: none), -0.523; in assay [2], -0.401.
Taken in the same sequence, the figures for NUP88 (UniProt Q99567) were -0.607, -0.513 and 0.549.
As for GEMIN2 (UniProt O14893), the results for the thermal stability z-score in assay [1] (setting [3]), in assay [1] (arsenate co-treatment: none) and in assay [2] were -0.139, -0.0485 and -0.345, respectively.
Take PGS1 (UniProt Q32NB8): the thermal stability z-score is 0.522 in assay [1] (setting [3]), 0.683 in assay [1] (arsenate co-treatment: none) and -0.266 in assay [2].
On to CHST14 (UniProt Q8NCH0), for which the thermal stability z-score is -0.943 in assay [1] (setting [3]), -0.167 in assay [1] (arsenate co-treatment: none) and -0.359 in assay [2].
With DNAJC15 (UniProt Q9Y5T4), the thermal stability z-score in assay [1] (setting [3]) is 0.824; in assay [1] (arsenate co-treatment: none), 0.507; in assay [2], -0.793.
Taken in the same sequence, the figures for YWHAE (UniProt P62258) were 0.149, 0.0341 and -0.368.
Taken in the same sequence, the figures for BAG2 (UniProt O95816) were 0.187, 0.292 and -0.106.
Regarding RPS7 (UniProt P62081), the thermal stability z-score is 0.514 in assay [1] (setting [3]), 0.322 in assay [1] (arsenate co-treatment: none) and -0.493 in assay [2].
In the case of SRPK1 (UniProt Q96SB4), the thermal stability z-score in assay [1] (setting [3]) is 0.669; in assay [1] (arsenate co-treatment: none), -0.433; in assay [2] it was 0.291.
Taken in the same sequence, the figures for ATP13A1 (UniProt Q9HD20) were -0.0204, 0.186 and -0.277.
The like results for HNRNPA1 (UniProt P09651) were, in that order, -1.06, -1.24 and -1.94.
Regarding ALG2 (UniProt Q9H553), the thermal stability z-score is -1.02 in assay [1] (setting [3]), -1.3 in assay [1] (arsenate co-treatment: none) and -0.992 in assay [2].
The like results for CPTP (UniProt Q5TA50) were, in that order, 2.01, 0.706 and 1.5.
For ZFAND3 (UniProt Q9H8U3), the thermal stability z-score in assay [1] (setting [3]) is 0.918; in assay [1] (arsenate co-treatment: none), 0.518; in assay [2] it was -1.25.
With ANXA7 (UniProt P20073), the figures for the thermal stability z-score in assay [1] (setting [3]), in assay [1] (arsenate co-treatment: none) and in assay [2] were 1.98, 1.08 and 0.966, respectively.
As for RAB27A (UniProt P51159), the thermal stability z-score is 0.277 in assay [1] (setting [3]), -0.14 in assay [1] (arsenate co-treatment: none) and 0.579 in assay [2].
With SMN1 (UniProt Q16637), the thermal stability z-score in assay [1] (setting [3]) was 0.304; in assay [1] (arsenate co-treatment: none), 0.798; in assay [2], -0.434.
In the case of ACAT2 (UniProt Q9BWD1), the values for the thermal stability z-score in assay [1] (setting [3]), in assay [1] (arsenate co-treatment: none) and in assay [2] were -0.0152, 6.3e-05 and -0.347, respectively.
On to POLR2E (UniProt P19388), for which the thermal stability z-score is 0.281 in assay [1] (setting [3]), 0.459 in assay [1] (arsenate co-treatment: none) and -1.34 in assay [2].
As to ADCK4 (UniProt Q96D53), the thermal stability z-score is -2.27 in assay [1] (setting [3]), -0.801 in assay [1] (arsenate co-treatment: none) and -0.165 in assay [2].
For the target RAD21 (UniProt O60216), the figures for the thermal stability z-score in assay [1] (setting [3]), in assay [1] (arsenate co-treatment: none) and in assay [2] were 0.628, 0.377 and 0.297, respectively.
For CLIC1 (UniProt O00299), the values for the thermal stability z-score in assay [1] (setting [3]), in assay [1] (arsenate co-treatment: none) and in assay [2] were 0.85, 0.348 and -0.144, respectively.
Consider DCK (UniProt P27707), for which the values for the thermal stability z-score in assay [1] (setting [3]), in assay [1] (arsenate co-treatment: none) and in assay [2] were 0.519, 0.335 and -5, respectively.
